# Assay results: ChEMBL document CHEMBL5316328, “Discovery of AXL Degraders with Improved Potencies in Triple-Negative Breast Cancer (TNBC) Cells” (J Med Chem, 2023)
# Activity calls are given as the source filed them. The rule behind the calls is not given here.
# Tests used:
# [1] = Antitumor activity against patient-derived breast cancer organoid assessed as reduction in cell viability incubated for 120 hrs by CellTiter-Glo 3D assay; type: functional, tissue-based; conditions: Homo sapiens
# MDA-MB-231 [2] = assay: Induction of cell cycle arrest in human MDA-MB-231 cells assessed as decrease in cyclin B1 level at 11.1 to 300 nM by Western blot analysis; type: functional, cell-based; conditions: dose 11.1-300 nM
# MDA-MB-231 [3] = assay: Antitumor activity against human MDA-MB-231 cells xenografted in Balb/c nude mouse assessed as tumor growth inhibition at 10 mg/kg, ip administered for 22 days and measured 24 hrs post last dose relative to control; type: functional; conditions: MDA-MB-231, 552 h, time 23 day, read-out: TGI
# MDA-MB-231 [4] = assay: Inhibition of migration in human MDA-MB-231 cells incubated for 18 hrs by transwell assay; type: functional, cell-based; conditions: dose 3.7-100 nM
# MDA-MB-231 [5] = assay: Induction of cell cycle arrest in human MDA-MB-231 cells assessed as S phase cells at 100 nM incubated for 24 hrs by PI staining based flow cytometric analysis (reference value: 9.64 to 10.79%); type: functional
# [6] = biological target: Casein kinase I isoform alpha (Homo sapiens) (UniProt P48729); assay: Induction of CK1alpha degradation in human MDA-MB-231 cells at 10 uM incubated for 24 hrs by Western blot analysis; type: cell-based
# MDA-MB-231 [7] = assay: Induction of cell cycle arrest in human MDA-MB-231 cells assessed as accumulation of cell at G2/M phase at 100 nM incubated for 24 hrs by PI staining based flow cytometric analysis (reference value: 24.34 to 24.44%); type: functional
# MDA-MB-231 [8] = assay: Inhibition of cell invasion in human MDA-MB-231 cells at 3.7 to 100 nM incubated for 18 hrs by transwell assay; type: functional, cell-based; conditions: dose 3.7-100 nM
# MDA-MB-231 [9] = assay: Induction of apoptosis in human MDA-MB-231 cells assessed as downregulation of caspase-9 expression by Western blot analysis; type: functional, cell-based; conditions: dose 11.1-300 nM
# MDA-MB-231 [10] = assay: Induction of apoptosis in human MDA-MB-231 cells assessed as viable cells at 100 nM incubated for 48 hrs by Annexin V-PE staining based flow cytometric analysis (reference value: 92.59 to 92.71%); type: functional; conditions: read-out: Activity
# MDA-MB-231 [11] = assay: Induction of apoptosis in human MDA-MB-231 cells assessed as viable cells at 33.3 nM incubated for 48 hrs by Annexin V-PE staining based flow cytometric analysis (reference value: 92.59 to 92.71%); type: functional; conditions: read-out: Activity
# [12] = Toxicity in Balb/c nude mouse xenografted with human MDA-MB-231 cells assessed as effect on body weight at 10 to 20 mg/kg, ip administered for 22 days and measured 24 hrs post last dose; type: organism-based; conditions: in vivo, 552 h, dose 10-20 mg/kg, time 23 day
# [13] = biological target: T1, Protein cereblon/Tyrosine-protein kinase receptor UFO (Homo sapiens, UniProt P30530+Q96SW2); assay: PROTAC activity at CRBN/AXL in human MDA-MB-231 cells assessed as induction of AXL degradation by measuring ubiquitination of AXL at 40 nM preincubated with MG-132 for 2 hrs followed by compound treatment and measured after 24 hrs by coimmunoprecipitation analysis; type: cell-based
# [14] = biological target: T1, Protein cereblon/Tyrosine-protein kinase receptor UFO; assay: PROTAC activity at CRBN/AXL in human MDA-MB-231 cells assessed as induction of AXL degradation incubated upto 20 hrs in the presence of cycloheximide by Western blot analysis; type: cell-based
# MDA-MB-231 [15] = assay: Induction of apoptosis in human MDA-MB-231 cells assessed as late apoptotic cells at 300 nM incubated for 48 hrs by Annexin V-PE staining based flow cytometric analysis (reference value: 0.32 to 0.82%); type: functional
# [16] = biological target: T1, Protein cereblon/Tyrosine-protein kinase receptor UFO; assay: PROTAC activity at CRBN/AXL in human MDA-MB-231 cells assessed as induction of AXL degradation at 10 nM preincubated with more than 5 uM of N-(4-((6,7-dimethoxyquinazolin-4-yl)oxy)-3-fluorophenyl)-6-ethyl-1,2-dimethyl-4-oxo-1,4-dihydroquinoline-3-carboxamide for 6 hrs followed by compound treatment and measured after 24 hrs by Western blot analysis; type: cell-based
# [17] = biological target: T1, Protein cereblon/Tyrosine-protein kinase receptor UFO; assay: PROTAC activity at CRBN/AXL in human MDA-MB-231 cells assessed as induction of AXL degradation by measuring maximal efficacy at 0.08 uM incubated for 24 hrs by Western blot analysis relative to control; type: cell-based
# [18] = biological target: ALK tyrosine kinase receptor (Homo sapiens, UniProt Q9UM73); assay: Inhibition of ALK (unknown origin)
# MDA-MB-231 [19] = assay: Induction of cell cycle arrest in human MDA-MB-231 cells assessed as G0/G1 phase cells at 300 nM incubated for 24 hrs by PI staining based flow cytometric analysis (reference value: 63.32 to 64.94%); type: functional
# MDA-MB-231 [20] = assay: Induction of apoptosis in human MDA-MB-231 cells assessed as early apoptotic cells at 300 nM incubated for 48 hrs by Annexin V-PE staining based flow cytometric analysis (reference value: 3.95 to 3.74%); type: functional
# [21] = biological target: T2, E3 ubiquitin-protein ligase ZFP91 (Homo sapiens) (UniProt Q96JP5); assay: Induction of ZFP91 degradation in human MDA-MB-231 cells at 10 uM incubated for 24 hrs by Western blot analysis; type: cell-based
# T2 sequence (whole entry): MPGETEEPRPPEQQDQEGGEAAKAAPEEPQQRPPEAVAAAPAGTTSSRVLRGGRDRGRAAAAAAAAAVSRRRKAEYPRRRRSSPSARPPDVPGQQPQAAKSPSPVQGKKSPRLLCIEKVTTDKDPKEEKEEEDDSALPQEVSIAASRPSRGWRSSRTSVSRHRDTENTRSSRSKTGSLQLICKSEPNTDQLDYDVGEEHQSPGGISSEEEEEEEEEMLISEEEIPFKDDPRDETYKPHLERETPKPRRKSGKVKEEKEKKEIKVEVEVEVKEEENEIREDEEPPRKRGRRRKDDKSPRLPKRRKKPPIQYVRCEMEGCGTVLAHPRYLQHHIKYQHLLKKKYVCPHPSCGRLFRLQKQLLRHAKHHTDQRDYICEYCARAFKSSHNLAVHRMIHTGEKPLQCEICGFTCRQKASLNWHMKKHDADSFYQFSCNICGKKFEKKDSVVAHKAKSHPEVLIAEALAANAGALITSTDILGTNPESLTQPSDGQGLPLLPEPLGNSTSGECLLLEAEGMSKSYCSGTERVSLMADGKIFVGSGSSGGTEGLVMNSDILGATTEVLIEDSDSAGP
# MDA-MB-231 [22] = assay: Induction of apoptosis in human MDA-MB-231 cells assessed as viable cells at 300 nM incubated for 48 hrs by Annexin V-PE staining based flow cytometric analysis (reference value: 92.59 to 92.71%); type: functional; conditions: read-out: Activity
# [23] = biological target: T1, Protein cereblon/Tyrosine-protein kinase receptor UFO; assay: PROTAC activity at CRBN/AXL in human MDA-MB-231 cells assessed as induction of AXL degradation at 40 nM by Western blot analysis; type: cell-based; conditions: time <= 72.0 hrs, TDE = time-dependent effect
# Homo sapiens = organism: Homo sapiens; assay: Antitumor activity against patient-derived breast cancer organoid assessed as decrease in structure density at 5 uM incubated for 120 hrs by bright-field imaging microscopic analysis; type: functional, tissue-based
# MDA-MB-231 [24] = assay: Induction of cell cycle arrest in human MDA-MB-231 cells assessed as decrease in CDK2 level at 11.1 to 300 nM by Western blot analysis; type: functional, cell-based; conditions: dose 11.1-300 nM
# T1 sequence (P30530 26-894 limits assumed): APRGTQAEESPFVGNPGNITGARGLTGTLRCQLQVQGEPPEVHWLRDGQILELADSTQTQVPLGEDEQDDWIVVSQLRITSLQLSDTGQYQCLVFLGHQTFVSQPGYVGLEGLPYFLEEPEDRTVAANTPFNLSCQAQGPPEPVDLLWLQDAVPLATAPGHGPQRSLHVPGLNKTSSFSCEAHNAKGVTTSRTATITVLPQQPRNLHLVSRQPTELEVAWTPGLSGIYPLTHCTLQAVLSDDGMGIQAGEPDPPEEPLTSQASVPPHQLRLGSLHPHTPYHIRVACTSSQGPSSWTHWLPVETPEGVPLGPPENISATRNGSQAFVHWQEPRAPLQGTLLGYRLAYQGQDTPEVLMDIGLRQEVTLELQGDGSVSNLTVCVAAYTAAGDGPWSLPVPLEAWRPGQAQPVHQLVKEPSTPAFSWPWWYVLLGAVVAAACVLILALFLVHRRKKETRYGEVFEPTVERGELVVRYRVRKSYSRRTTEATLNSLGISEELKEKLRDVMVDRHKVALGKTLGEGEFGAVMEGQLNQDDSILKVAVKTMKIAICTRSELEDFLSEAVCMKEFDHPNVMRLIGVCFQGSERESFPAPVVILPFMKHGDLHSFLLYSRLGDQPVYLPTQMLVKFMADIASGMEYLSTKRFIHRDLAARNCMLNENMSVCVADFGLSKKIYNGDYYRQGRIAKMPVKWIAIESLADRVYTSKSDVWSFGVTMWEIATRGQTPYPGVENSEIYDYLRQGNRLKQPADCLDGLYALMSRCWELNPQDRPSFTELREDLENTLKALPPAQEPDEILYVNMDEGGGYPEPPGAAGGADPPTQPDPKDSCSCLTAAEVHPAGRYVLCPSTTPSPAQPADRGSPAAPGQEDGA
# T1 sequence (Q96SW2 whole entry partner): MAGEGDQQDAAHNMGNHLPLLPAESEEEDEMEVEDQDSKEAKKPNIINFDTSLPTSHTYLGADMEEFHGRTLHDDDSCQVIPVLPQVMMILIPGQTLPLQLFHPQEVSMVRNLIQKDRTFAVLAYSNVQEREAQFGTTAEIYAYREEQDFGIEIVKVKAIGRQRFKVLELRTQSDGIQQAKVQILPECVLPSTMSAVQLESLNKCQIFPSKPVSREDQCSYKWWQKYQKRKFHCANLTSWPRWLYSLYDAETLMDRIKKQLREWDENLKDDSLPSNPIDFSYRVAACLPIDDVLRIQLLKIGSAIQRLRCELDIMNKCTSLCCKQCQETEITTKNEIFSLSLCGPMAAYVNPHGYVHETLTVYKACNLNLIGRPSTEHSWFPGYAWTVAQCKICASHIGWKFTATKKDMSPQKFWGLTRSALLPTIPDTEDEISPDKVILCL
# Chain of ALK tyrosine kinase receptor (Q9UM73 whole entry): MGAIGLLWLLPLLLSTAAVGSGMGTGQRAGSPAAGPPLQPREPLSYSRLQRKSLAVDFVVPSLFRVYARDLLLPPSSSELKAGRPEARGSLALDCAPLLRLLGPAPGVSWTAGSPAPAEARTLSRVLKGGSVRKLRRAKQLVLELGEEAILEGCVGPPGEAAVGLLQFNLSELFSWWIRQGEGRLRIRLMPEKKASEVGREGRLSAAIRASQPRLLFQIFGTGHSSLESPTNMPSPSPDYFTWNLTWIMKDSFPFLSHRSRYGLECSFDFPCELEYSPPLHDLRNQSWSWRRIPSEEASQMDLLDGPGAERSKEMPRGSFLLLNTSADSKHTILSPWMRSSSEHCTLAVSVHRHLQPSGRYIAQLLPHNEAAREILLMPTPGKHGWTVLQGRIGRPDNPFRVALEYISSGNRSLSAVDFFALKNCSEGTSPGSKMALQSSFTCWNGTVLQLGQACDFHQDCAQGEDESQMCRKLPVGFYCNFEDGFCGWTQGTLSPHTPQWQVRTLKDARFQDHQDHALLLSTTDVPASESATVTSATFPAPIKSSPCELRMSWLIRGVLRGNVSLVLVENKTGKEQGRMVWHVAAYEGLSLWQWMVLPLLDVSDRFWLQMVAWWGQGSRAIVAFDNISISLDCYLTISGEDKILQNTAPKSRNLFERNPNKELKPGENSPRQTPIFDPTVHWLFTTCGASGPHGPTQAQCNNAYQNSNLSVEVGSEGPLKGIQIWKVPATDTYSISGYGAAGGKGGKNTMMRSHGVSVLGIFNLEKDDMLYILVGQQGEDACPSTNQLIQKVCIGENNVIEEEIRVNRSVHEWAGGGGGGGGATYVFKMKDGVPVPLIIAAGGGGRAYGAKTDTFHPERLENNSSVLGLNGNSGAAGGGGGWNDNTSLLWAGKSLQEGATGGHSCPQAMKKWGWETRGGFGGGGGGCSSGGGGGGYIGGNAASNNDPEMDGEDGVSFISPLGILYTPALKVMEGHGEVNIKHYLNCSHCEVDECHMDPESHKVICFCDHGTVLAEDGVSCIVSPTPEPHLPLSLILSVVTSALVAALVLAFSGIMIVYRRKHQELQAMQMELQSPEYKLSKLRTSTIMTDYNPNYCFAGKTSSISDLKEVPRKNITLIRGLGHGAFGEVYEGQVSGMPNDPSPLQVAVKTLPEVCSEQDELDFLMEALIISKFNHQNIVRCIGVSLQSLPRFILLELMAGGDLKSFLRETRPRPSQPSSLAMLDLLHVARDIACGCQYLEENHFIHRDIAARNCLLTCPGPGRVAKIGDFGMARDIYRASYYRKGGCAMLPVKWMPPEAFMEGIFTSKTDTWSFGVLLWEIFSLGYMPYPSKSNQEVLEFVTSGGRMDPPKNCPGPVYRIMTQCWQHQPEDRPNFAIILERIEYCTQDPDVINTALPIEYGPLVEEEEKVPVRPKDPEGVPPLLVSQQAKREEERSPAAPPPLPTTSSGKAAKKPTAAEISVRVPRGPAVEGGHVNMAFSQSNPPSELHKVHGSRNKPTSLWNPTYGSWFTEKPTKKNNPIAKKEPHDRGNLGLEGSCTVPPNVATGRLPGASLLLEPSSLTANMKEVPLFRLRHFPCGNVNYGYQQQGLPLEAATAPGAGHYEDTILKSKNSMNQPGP
# Chain of Casein kinase I isoform alpha (Homo sapiens) (P48729 2-337 limits assumed): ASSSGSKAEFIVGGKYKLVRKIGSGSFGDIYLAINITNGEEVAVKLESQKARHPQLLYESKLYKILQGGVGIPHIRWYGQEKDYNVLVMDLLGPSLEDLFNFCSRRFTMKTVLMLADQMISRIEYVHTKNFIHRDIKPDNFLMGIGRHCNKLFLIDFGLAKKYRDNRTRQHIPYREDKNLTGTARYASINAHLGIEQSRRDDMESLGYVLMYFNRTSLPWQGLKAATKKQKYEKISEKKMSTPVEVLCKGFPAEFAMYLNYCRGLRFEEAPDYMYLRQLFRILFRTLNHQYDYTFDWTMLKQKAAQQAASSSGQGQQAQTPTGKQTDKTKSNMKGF
smiles,measurement,setting,value
CCc1ccc2c(c1)c(=O)c(C(=O)Nc1ccc(Oc3ncnc4cc(OCCCCCC(=O)Nc5ccc6c(c5)CN(C5CCC(=O)NC5=O)C6=O)c(OC)cc34)c(F)c1)c(C)n2C (stereo not given),IC50,[1],20 nM
same,Activity,MDA-MB-231 [2],Active
same,inhibition in vivo at 10 mg/kg,MDA-MB-231 [3],40.9%
same,inhibition,MDA-MB-231 [4],Dose-Dependent Effect
same,Activity,MDA-MB-231 [5],15.78%
same,Activity,[6],inactive
same,Activity,MDA-MB-231 [7],31.16%
same,inhibition,MDA-MB-231 [8],Active
same,Activity,MDA-MB-231 [9],Dose-Dependent Effect
same,viability at 0.1 µM,MDA-MB-231 [10],83.4%
same,viability at 0.0333 µM,MDA-MB-231 [11],91.5%
same,Activity,[12],Non-Toxic
same,Activity,[13],inactive
same,Activity,[14],Active
same,Activity,MDA-MB-231 [15],0.79%
same,Activity,[16],inactive
same,Emax,[17],80.5%
same,IC50,[18],4.94 nM
same,Activity,MDA-MB-231 [19],47.51%
same,Activity,MDA-MB-231 [20],20.49%
same,Activity,[21],inactive
same,viability at 0.3 µM,MDA-MB-231 [22],74.1%
same,Activity,[23],Tde
same,Activity,Homo sapiens,Active
same,Activity,MDA-MB-231 [24],Active
